Laboratory results: patent US11191820B2, “Method for inducing early T memory response with short peptides anti-tumor vaccine” (OSE IMMUNOTHERAPEUTICS, priority 2015, dated 2021)

Experiments:
Assay type in all cases: in vivo, human
central memory T cells [1] = test: Central memory T cell cultured ELISPOT, phase 2 trial in advanced NSCLC
Method in brief: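 Patient PBMC were pre-stimulated for 10 days with 10 μg/ml peptide plus rIL2 (10 U/ml, days 1, 4, 7), then replated at 5×10^4/well with irradiated autologous PBMC and 10 μg/ml peptide, and SFC were counted. A response was positive if >5 SFC above, and > mean+2 SD of, the irrelevant HBV epitope, and twofold the pre-vaccination response plus 2 SD.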

central memory T cells [2] = test: Cultured IFN-γ ELISPOT after 10-day in vitro stimulation of PBMC, phase 1/2 NSCLC trial of OSE-2101; design: key to net SFC of vaccine positive CTL responses: —, indicates SFC response did not meet criteria and vaccine response was negative; conditions: for No. Positive Responses / Mean SFC: 6 NSCLC patients
Method in brief: (§1)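 Patient PBMC (pre-treatment, Week 9, Week 18, after s.c. dosing every 3 weeks) were stimulated 10 days with 10 μg/ml of each epitope plus rIL-2 10 U/ml on days 1, 4 and 7. Cells were then tested 20 h with irradiated autologous PBMC and 10 μg/ml vaccine or wild-type peptide. Net SFC per 5×10^4 cells, irrelevant HBV peptide subtracted.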

central memory T cells [3] = test: Cultured IFN-γ ELISPOT after 10-day in vitro stimulation of PBMC, phase 1/2 colon cancer trial of OSE-2101; design: key to net SFC of vaccine positive CTL responses: —, indicates SFC response did not meet criteria and vaccine response was negative; conditions: for Mean SFC: 10 colon patients
Method in brief: as §1

Sequence: SMPPPGTRV [p53.149M2 A]
- % of patients with positive CTL/central memory T cell response (central memory T cells [1]; phase 2, month 9): 0%
- patients with positive CTL/central memory T cell response / patients tested (central memory T cells [1]; phase 2, month 9): 0/7
- % of patients with positive CTL/central memory T cell response (central memory T cells [1]; phase 2, month 12): 0%
- patients with positive CTL/central memory T cell response / patients tested (central memory T cells [1]; phase 2, month 12): 0/4
- % of patients with positive CTL/central memory T cell response (central memory T cells [1]; phase 2, week 9): 9%
- patients with positive CTL/central memory T cell response / patients tested (central memory T cells [1]; phase 2, week 9): 1/11
- % of patients with positive CTL/central memory T cell response (central memory T cells [1]; phase 2, week 18): 0%
- patients with positive CTL/central memory T cell response / patients tested (central memory T cells [1]; phase 2, week 18): 0/11
- % of patients with positive CTL/central memory T cell response (central memory T cells [1]; phase 2, week 30): 0%
- patients with positive CTL/central memory T cell response / patients tested (central memory T cells [1]; phase 2, week 30): 0/6
- No. Positive Responses (central memory T cells [2]; Week 9): 0
- No. Positive Responses (central memory T cells [2]; Week 18): 0
- net SFC of vaccine positive CTL responses (central memory T cells [2]; NSCLC patient 201, Week 9): —
- net SFC of vaccine positive CTL responses (central memory T cells [2]; NSCLC patient 201, Week 18): —
- net SFC of vaccine positive CTL responses (central memory T cells [2]; NSCLC patient 502, Week 9): —
- net SFC of vaccine positive CTL responses (central memory T cells [2]; NSCLC patient 502, Week 18): —
- net SFC of vaccine positive CTL responses (central memory T cells [2]; NSCLC patient 504, Week 9): —
- net SFC of vaccine positive CTL responses (central memory T cells [2]; NSCLC patient 504, Week 18): —
- net SFC of vaccine positive CTL responses (central memory T cells [2]; NSCLC patient 505, Week 9): —
- net SFC of vaccine positive CTL responses (central memory T cells [2]; NSCLC patient 505, Week 18): —
- net SFC of vaccine positive CTL responses (central memory T cells [2]; NSCLC patient 532, Week 9): —
- net SFC of vaccine positive CTL responses (central memory T cells [2]; NSCLC patient 532, Week 18): —
- net SFC of vaccine positive CTL responses (central memory T cells [2]; NSCLC patient 651, Week 9): —
- net SFC of vaccine positive CTL responses (central memory T cells [2]; NSCLC patient 651, Week 18): —
- Mean SFC (central memory T cells [3]; Week 9): 18.0 SFC per 50,000 cells
- net SFC of vaccine positive CTL responses (central memory T cells [3]; colon patient 551, Week 9): —
- net SFC of vaccine positive CTL responses (central memory T cells [3]; colon patient 551, Week 18): —
- net SFC of vaccine positive CTL responses (central memory T cells [3]; colon patient 601, Week 9): —
- net SFC of vaccine positive CTL responses (central memory T cells [3]; colon patient 601, Week 18): —
- net SFC of vaccine positive CTL responses (central memory T cells [3]; colon patient 602, Week 9): —
- net SFC of vaccine positive CTL responses (central memory T cells [3]; colon patient 602, Week 18): —
- net SFC of vaccine positive CTL responses (central memory T cells [3]; colon patient 603, Week 9): —
- net SFC of vaccine positive CTL responses (central memory T cells [3]; colon patient 603, Week 18): —
- net SFC of vaccine positive CTL responses (central memory T cells [3]; colon patient 604, Week 9): —
- net SFC of vaccine positive CTL responses (central memory T cells [3]; colon patient 604, Week 18): —
- net SFC of vaccine positive CTL responses (central memory T cells [3]; colon patient 605, Week 9): —
- net SFC of vaccine positive CTL responses (central memory T cells [3]; colon patient 605, Week 18): —
- net SFC of vaccine positive CTL responses (central memory T cells [3]; colon patient 606, Week 9): —
- net SFC of vaccine positive CTL responses (central memory T cells [3]; colon patient 606, Week 18): —
- net SFC of vaccine positive CTL responses (central memory T cells [3]; colon patient 607, Week 9): —
- net SFC of vaccine positive CTL responses (central memory T cells [3]; colon patient 607, Week 18): —
- net SFC of vaccine positive CTL responses (central memory T cells [3]; colon patient 608, Week 9): 18.0 SFC per 50,000 cells
- net SFC of vaccine positive CTL responses (central memory T cells [3]; colon patient 608, Week 18): —
- net SFC of vaccine positive CTL responses (central memory T cells [3]; colon patient 609, Week 9): —
- net SFC of vaccine positive CTL responses (central memory T cells [3]; colon patient 609, Week 18): —

Sequence: YLQLVFGIEV [MAGE2.157 WT]
- % of patients with positive CTL/central memory T cell response (central memory T cells [1]; phase 2, month 9): 57%
- patients with positive CTL/central memory T cell response / patients tested (central memory T cells [1]; phase 2, month 9): 4/7
- % of patients with positive CTL/central memory T cell response (central memory T cells [1]; phase 2, month 12): 50%
- patients with positive CTL/central memory T cell response / patients tested (central memory T cells [1]; phase 2, month 12): 2/4
- % of patients with positive CTL/central memory T cell response (central memory T cells [1]; phase 2, week 9): 27%
- patients with positive CTL/central memory T cell response / patients tested (central memory T cells [1]; phase 2, week 9): 9/33
- % of patients with positive CTL/central memory T cell response (central memory T cells [1]; phase 2, week 18): 28%
- patients with positive CTL/central memory T cell response / patients tested (central memory T cells [1]; phase 2, week 18): 9/32
- % of patients with positive CTL/central memory T cell response (central memory T cells [1]; phase 2, week 30): 43%
- patients with positive CTL/central memory T cell response / patients tested (central memory T cells [1]; phase 2, week 30): 10/23
- Mean SFC (central memory T cells [2]; Week 9): 30.0 SFC per 50,000 cells
- No. Positive Responses (central memory T cells [2]; Week 9): 2
- Mean SFC (central memory T cells [2]; Week 18): 66.8 SFC per 50,000 cells
- No. Positive Responses (central memory T cells [2]; Week 18): 2
- net SFC of vaccine positive CTL responses (central memory T cells [2]; NSCLC patient 201, Week 9): —
- net SFC of vaccine positive CTL responses (central memory T cells [2]; NSCLC patient 201, Week 18): —
- net SFC of vaccine positive CTL responses (central memory T cells [2]; NSCLC patient 502, Week 9): 9.3 SFC per 50,000 cells
- net SFC of vaccine positive CTL responses (central memory T cells [2]; NSCLC patient 502, Week 18): —
- net SFC of vaccine positive CTL responses (central memory T cells [2]; NSCLC patient 504, Week 9): 50.7 SFC per 50,000 cells
- net SFC of vaccine positive CTL responses (central memory T cells [2]; NSCLC patient 504, Week 18): 124.7 SFC per 50,000 cells
- net SFC of vaccine positive CTL responses (central memory T cells [2]; NSCLC patient 505, Week 9): —
- net SFC of vaccine positive CTL responses (central memory T cells [2]; NSCLC patient 505, Week 18): —
- net SFC of vaccine positive CTL responses (central memory T cells [2]; NSCLC patient 532, Week 9): —
- net SFC of vaccine positive CTL responses (central memory T cells [2]; NSCLC patient 532, Week 18): —
- net SFC of vaccine positive CTL responses (central memory T cells [2]; NSCLC patient 651, Week 9): —
- net SFC of vaccine positive CTL responses (central memory T cells [2]; NSCLC patient 651, Week 18): 9.0 SFC per 50,000 cells
- Mean SFC (central memory T cells [3]; Week 9): 246.0 SFC per 50,000 cells
- Mean SFC (central memory T cells [3]; Week 18): 418.1 SFC per 50,000 cells
- net SFC of vaccine positive CTL responses (central memory T cells [3]; colon patient 551, Week 9): —
- net SFC of vaccine positive CTL responses (central memory T cells [3]; colon patient 551, Week 18): 45.7 SFC per 50,000 cells
- net SFC of vaccine positive CTL responses (central memory T cells [3]; colon patient 601, Week 9): —
- net SFC of vaccine positive CTL responses (central memory T cells [3]; colon patient 601, Week 18): —
- net SFC of vaccine positive CTL responses (central memory T cells [3]; colon patient 602, Week 9): —
- net SFC of vaccine positive CTL responses (central memory T cells [3]; colon patient 602, Week 18): —
- net SFC of vaccine positive CTL responses (central memory T cells [3]; colon patient 603, Week 9): 320.0 SFC per 50,000 cells
- net SFC of vaccine positive CTL responses (central memory T cells [3]; colon patient 603, Week 18): —
- net SFC of vaccine positive CTL responses (central memory T cells [3]; colon patient 604, Week 9): —
- net SFC of vaccine positive CTL responses (central memory T cells [3]; colon patient 604, Week 18): —
- net SFC of vaccine positive CTL responses (central memory T cells [3]; colon patient 605, Week 9): —
- net SFC of vaccine positive CTL responses (central memory T cells [3]; colon patient 605, Week 18): —
- net SFC of vaccine positive CTL responses (central memory T cells [3]; colon patient 606, Week 9): —
- net SFC of vaccine positive CTL responses (central memory T cells [3]; colon patient 606, Week 18): 24.7 SFC per 50,000 cells
- net SFC of vaccine positive CTL responses (central memory T cells [3]; colon patient 607, Week 9): 172.0 SFC per 50,000 cells
- net SFC of vaccine positive CTL responses (central memory T cells [3]; colon patient 607, Week 18): 1184.0 SFC per 50,000 cells
- net SFC of vaccine positive CTL responses (central memory T cells [3]; colon patient 608, Week 9): —
- net SFC of vaccine positive CTL responses (central memory T cells [3]; colon patient 608, Week 18): —
- net SFC of vaccine positive CTL responses (central memory T cells [3]; colon patient 609, Week 9): —
- net SFC of vaccine positive CTL responses (central memory T cells [3]; colon patient 609, Week 18): —
